Measured values as given in patent publication EP4685142A1, “TRIAZINE COMPOUND AND USE THEREOF” (Chengdu Zenitar Biomedical Technology Co., Ltd., priority 2023, dated 2024).
Where two headings read alike, the source gives them in different places.

Assays:
[1] = biological target: T1, hERG potassium ion channel (Homo sapiens, UniProt Q12809)
Protocol: (§1) Inhibition experiment of compounds on hERG potassium ion channel
(§2) Cell culture and treatment: CHO cells stably expressing hERG were cultured in cell culture flasks and incubated in a 5% CO2 incubator at 37°C. When a cell density reached 60%-80%, the cell culture medium was aspirated, washed once with PBS, and then digested with Detachin. After digestion, the grown cells were neutralized in the cell culture medium, and then centrifuged, the supernatant was aspirated, the cell culture medium was added again to resuspend the grown cells, and the cell density was adjusted to 2-5×10^6 cells/mL for later use.
(§3) Compound preparation: the compound stock solution was diluted in 100% DMSO, that is, 10 µL compound stock solution was serially diluted in 20 µL DMSO by 3 folds to obtain six concentrations. Six concentrations of the compound (4 µL for each concentration) were diluted in 396 µL extracellular fluid by 100 folds to obtain six intermediate concentrations. Six intermediate concentrations of the compound (80 µL for each concentration) were diluted in 320 µL extracellular fluid by 5 folds to obtain final concentrations to be tested. […] DMSO in a final test concentration was not more than 0.2%, and DMSO at this concentration had no effect on the hERG potassium channel. The entire dilution process for compound preparation was performed using Bravo instrument.
(§4) Electrophysiological recording process: the processes of single-celled high-impedance sealing and whole-cell mode formation were all automatically completed by Qpatch instrument, under the whole-cell recording mode, the cells were clamped at -80 mV, before 5-second + 40 mV depolarization stimulus, the cells were given 50-millisecond - 50 mV pre-voltage, followed by repolarization to -50 mV for 5 seconds, and then returning to -80 mV. The voltage stimulus was given every 15 seconds, after 2 minutes of recording, extracellular fluid was recorded for 5 min, and then a drug was administrated, started from a lowest test concentration, each test concentration of the compound was given for 2.5 minutes, after all concentrations were given consecutively, a positive control compound Cisapride (3 µM) was given. At least 3 cells were tested for each concentration (n≥3).
(§5) Data processing: data analysis and processing were performed using GraphPad Prism 5.0 and Excel software. IC50 values of the compounds were calculated by fitting with the following equation using GraphPad Prism 5 software: Y = Bottom + (Top−Bottom)/(1+10^(∧)((LogIC50−X)*HillSlope)); [formula] where X is the Log value of the test sample concentration, Y is an inhibition percentage at a corresponding concentration, and Bottom and Top are the minimum and maximum inhibition percentages, respectively.

[2] = Pharmacokinetic evaluation in Balb/c mice; format: in vivo; conditions: mouse, in vivo, 5 mg/kg
Source text: 4. Pharmacokinetic evaluation of compounds in Balb/c mice
Experimental purpose: to understand pharmacokinetic properties of the compounds.
Experimental basis: Technical Guidelines for Nonclinical Pharmacokinetic Studies of Chemical Drugs, 2014.
Experimental protocol: the pharmacokinetic properties of the compounds were investigated via intravenous administration and intragastric administration in Balb/c mice.
The blood drug concentration was quantitatively analyzed by LC-MS/MS, and pharmacokinetic parameters were calculated, such as peak concentration (Cmax), area under the concentration-time curve (AUC(0-t)), half-life (T1/2), clearance (CL), volume of distribution at steady state (Vdss), and bioavailability (F).
The results of pharmacokinetic evaluation are shown in Table 5 below: Table 5 Pharmacokinetic test results of compounds in Balb/c mice

[3] = biological target: T1, hERG potassium ion channel; test: Inhibition of hERG potassium ion channel (CHO cells stably expressing hERG, Qpatch)
Protocol: as §1, §2, §3, §4, §5

NLRP3 inflammasome = biological target: T2, NLRP3 inflammasome (Homo sapiens, UniProt Q96P20); test: Inhibitory activity of NLRP3 inflammasome in human monocytes (THP-1 cells, LPS + Nigericin, IL-1β ELISA); format: cell-based
T2 construct: host or cells: THP-1 cells
Protocol: 1. Determination of inhibitory activity of NLRP3 inflammasome in human monocytes
Experimental method: THP-1 cells were cultured in RPMI culture medium containing PMA (10 µM), and then inoculated in 48-well plates at a density of 2×10^5 cells/mL, the plates were incubated overnight in a 5% CO2 incubator at 37°C. The next day, the above culture medium was replaced with Opti-MEM culture medium containing 1 µg/mL LPS. After 3 hours, the grown cells were simulated for 40 min with a drug, and then simulated for 40 min with Nigericin (10 µM), and a cell supernatant was harvested for ELISA analysis.
Table 2 Inhibitory activity of NLRP3 inflammasome

LPS-induced mice = test: LPS-induced mouse model, survival; format: in vivo, Balb/c mice; conditions: for 72h Survival rate: 25 mg/kg oral, 1 h before 10 mg/kg LPS i.p.; for survival status of mice (mice alive) 12h / survival status of mice (mice alive) 24h / survival status of mice (mice alive) 36h / survival status of mice (mice alive) 48h / survival status of mice (mice alive) 72h: 25 mg/kg
[4] = In vivo brain-to-plasma ratio in mice; conditions: for Plasma / Brain: male mice, oral 10 mg/kg; for Kp at 1 h / Kp at 6 h: mouse, brain, po, 10 mg/kg
Protocol: Evaluation of in vivo brain-to-plasma ratio of compound
Experimental purpose: to obtain the brain-to-plasma ratio of the compound
Experimental protocol: the brain-to-plasma ratio of the compound was investigated by monitoring the content of the compound in mouse brain and plasma.
Experimental procedure: the compound was weighed, followed by adding a small amount of DMSO and adding a sodium chloride solution for injection, to prepare a 10 mg · mL^-1 compound solution for administration. Male mice were orally administered at 10 mg · kg^-1, and whole plasma and whole brain tissue were sampled at 1 h and 6 h after administration (n=3). […] A centrifuge tube was weighed as M1, the centrifuge tube containing the whole brain tissue was weighed as M2, the centrifuge tube containing water for homogenization was weighed as M3, and the centrifuge tube after the removal of 30 µL homogenate was weighed as M4.
Standard curve range: 10-10,000 ng·mL^-1. Content of drug in brain = measured value × 0.03 × (M3−M1)/[(M2−M1)×(M3−M4)].

[5] = In vivo distribution of cerebrospinal fluid and plasma; conditions: for Cerebrospinal fluid / Plasma: intravenous 5 mg/kg, n=1; for concentration at 0.25 h / concentration at 2 h: male, iv, 5 mg/kg
Protocol: Evaluation of in vivo distribution of cerebrospinal fluid and plasma after compound administration
Experimental procedure: the compound was weighed, followed by adding a small amount of DMSO and then adding a sodium chloride solution for injection, to prepare a 5 mg·mL^-1 compound solution for administration. […] Standard curve range: 1-1000 ng·mL^-1.

[6] = THP-1 cells, PMA, LPS 1 µg/mL 3 h, drug 40 min, Nigericin 10 µM 40 min, IL-1β ELISA, read-out: IC50
[7] = PO, Balb/c mice, read-out: AUC(0-t)
[8] = PO, Balb/c mice, read-out: Cmax
[9] = PO, Balb/c mice, read-out: T1/2 (converted)

T2 sequence (Q96P20 whole entry): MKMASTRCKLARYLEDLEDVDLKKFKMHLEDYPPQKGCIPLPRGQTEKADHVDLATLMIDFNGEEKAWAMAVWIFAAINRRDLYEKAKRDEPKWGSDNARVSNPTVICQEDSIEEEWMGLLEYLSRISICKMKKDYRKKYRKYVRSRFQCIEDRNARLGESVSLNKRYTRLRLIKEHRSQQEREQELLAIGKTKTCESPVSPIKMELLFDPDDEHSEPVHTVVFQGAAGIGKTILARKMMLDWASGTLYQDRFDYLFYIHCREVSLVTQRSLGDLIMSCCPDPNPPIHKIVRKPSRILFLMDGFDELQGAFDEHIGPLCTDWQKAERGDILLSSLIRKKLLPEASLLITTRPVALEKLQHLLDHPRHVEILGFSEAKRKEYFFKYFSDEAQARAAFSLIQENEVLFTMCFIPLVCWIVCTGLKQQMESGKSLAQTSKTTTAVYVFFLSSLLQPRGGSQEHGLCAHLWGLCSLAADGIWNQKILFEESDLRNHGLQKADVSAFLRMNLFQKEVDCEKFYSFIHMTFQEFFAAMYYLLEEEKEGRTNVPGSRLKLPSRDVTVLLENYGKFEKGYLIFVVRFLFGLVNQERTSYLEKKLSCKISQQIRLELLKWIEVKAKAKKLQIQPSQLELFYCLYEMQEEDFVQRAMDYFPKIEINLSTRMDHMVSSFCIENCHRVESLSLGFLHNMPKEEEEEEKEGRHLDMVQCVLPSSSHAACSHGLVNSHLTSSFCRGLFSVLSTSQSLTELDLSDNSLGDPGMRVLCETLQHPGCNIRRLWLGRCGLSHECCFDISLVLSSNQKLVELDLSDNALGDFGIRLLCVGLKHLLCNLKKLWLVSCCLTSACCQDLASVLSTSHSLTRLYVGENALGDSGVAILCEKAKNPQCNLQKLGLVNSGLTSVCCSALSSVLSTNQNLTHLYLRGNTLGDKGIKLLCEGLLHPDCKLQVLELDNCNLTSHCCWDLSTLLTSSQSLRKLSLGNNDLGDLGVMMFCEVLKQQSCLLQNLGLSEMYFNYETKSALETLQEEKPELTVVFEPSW
T1 sequence (Q12809 whole entry): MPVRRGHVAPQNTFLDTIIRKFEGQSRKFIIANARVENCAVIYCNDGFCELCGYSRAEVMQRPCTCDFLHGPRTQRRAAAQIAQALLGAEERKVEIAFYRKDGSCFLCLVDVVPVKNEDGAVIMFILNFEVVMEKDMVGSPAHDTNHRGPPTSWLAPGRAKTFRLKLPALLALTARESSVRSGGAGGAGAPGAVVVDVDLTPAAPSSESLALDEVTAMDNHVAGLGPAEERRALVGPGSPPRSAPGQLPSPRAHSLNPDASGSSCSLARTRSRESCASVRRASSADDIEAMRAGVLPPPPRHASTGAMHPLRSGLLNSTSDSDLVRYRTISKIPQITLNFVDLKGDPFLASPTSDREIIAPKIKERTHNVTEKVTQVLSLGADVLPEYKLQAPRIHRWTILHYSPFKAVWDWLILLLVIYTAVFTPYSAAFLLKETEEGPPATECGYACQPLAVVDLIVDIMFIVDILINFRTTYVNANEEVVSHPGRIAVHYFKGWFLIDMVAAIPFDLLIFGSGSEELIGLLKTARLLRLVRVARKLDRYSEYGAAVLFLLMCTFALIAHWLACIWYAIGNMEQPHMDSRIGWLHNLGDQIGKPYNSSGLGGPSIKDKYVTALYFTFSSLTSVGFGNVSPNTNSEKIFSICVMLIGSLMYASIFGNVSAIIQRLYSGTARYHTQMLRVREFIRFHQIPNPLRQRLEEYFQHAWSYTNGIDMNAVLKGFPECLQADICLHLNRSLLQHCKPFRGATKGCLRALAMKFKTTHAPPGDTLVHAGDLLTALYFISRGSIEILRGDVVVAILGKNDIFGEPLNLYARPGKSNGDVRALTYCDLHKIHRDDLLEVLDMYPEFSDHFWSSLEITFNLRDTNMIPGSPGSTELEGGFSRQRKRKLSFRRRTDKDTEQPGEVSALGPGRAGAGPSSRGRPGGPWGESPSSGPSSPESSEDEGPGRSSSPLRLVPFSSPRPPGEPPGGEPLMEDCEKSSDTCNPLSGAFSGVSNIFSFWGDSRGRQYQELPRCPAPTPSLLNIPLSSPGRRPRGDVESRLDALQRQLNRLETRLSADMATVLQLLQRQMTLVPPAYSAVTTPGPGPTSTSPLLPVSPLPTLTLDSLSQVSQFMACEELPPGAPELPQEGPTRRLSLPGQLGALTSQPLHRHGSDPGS

SMILES	inhibitory effects on the hERG potassium ion channel (conclusion in words) ([1]; human)	20 uM Inhibition ratio [3]	IC50 (NLRP3 inflammasome; [6])	inhibitory effects on the hERG potassium ion channel (conclusion in words) [1]	AUC(0-t) [2, 7]	Cmax [2, 8]	half-life [2, 9]	IC50 (NLRP3 inflammasome)	Cerebrospinal fluid ([5]; 0.25h)	Plasma ([5]; 0.25h)	Cerebrospinal fluid ([5]; 2h)	Plasma ([5]; 2h)	other results
Cn1c(-c2ccc3sccc3c2O)nnc(N[C@@H]2CCCC[C@H]2O)c1=O [Compound 30, 3-(4-hydroxybenzo[b]thiophen-5-yl)-6-(((1R,2R)-2-hydroxycyclohexyl)amino)-4-methyl-1,2,4-triazin-5(4H)-ketone.]	Conclusion: compounds 3, 4, 5, 9, 16, 17, 24, 30, 40, 41, 42, 43, 54 and others have weak inhibitory effects on the hERG potassium ion channel, having weaker inhibitory effect than the reference compound Ref-1.	1.70%	1.97 nM										AUC(0-t) ([2]; male, Balb/c, po): 4380 ng·h/mL; Cmax ([2]; male, Balb/c, po): 9810 ng/mL; half-life ([2]; male, Balb/c, po): 0.19 h
Cn1c(-c2ccc3sccc3c2O)nnc(N[C@@H]2CCCN(C3CC(F)(F)C3)C2)c1=O [Compound 5, (R)-6-((1-(3,3-difluorocyclobutyl)piperidin-3-yl)amino)-3-(4-hydroxybenzo[b]thiophen-5-yl)-4-methyl-1,2,4-triazin-5(4H)-ketone]	Conclusion: compounds 3, 4, 5, 9, 16, 17, 24, 30, 40, 41, 42, 43, 54 and others have weak inhibitory effects on the hERG potassium ion channel, having weaker inhibitory effect than the reference compound Ref-1.	19.97%	3.56 nM										
Cn1c(-c2ccc3sccc3c2O)nnc(N[C@@H]2CCCN(CCO)C2)c1=O [Compound 9, (R)-3-(4-hydroxybenzo[b]thiophen-5-yl)-6-((1-(2-hydroxyethyl)piperidin-3-yl)amino)-4-methyl-1,2,4-triazin-5(4H)-ketone]		8.83%		Conclusion: compounds 3, 4, 5, 9, 16, 17, 24, 30, 40, 41, 42, 43, 54 and others have weak inhibitory effects on the hERG potassium ion channel, having weaker inhibitory effect than the reference compound Ref-1.	4400 ng·h/mL	2280 ng/mL	0.85 h	3.95 nM					72h Survival rate (LPS-induced mice): 70%; survival status of mice (mice alive) 12h (LPS-induced mice; First cage (5 mice)): 5; survival status of mice (mice alive) 24h (LPS-induced mice; First cage (5 mice)): 5; survival status of mice (mice alive) 36h (LPS-induced mice; First cage (5 mice)): 5; survival status of mice (mice alive) 48h (LPS-induced mice; First cage (5 mice)): 5; survival status of mice (mice alive) 72h (LPS-induced mice; First cage (5 mice)): 3; survival status of mice (mice alive) 12h (LPS-induced mice; Second cage (5 mice)): 5; survival status of mice (mice alive) 24h (LPS-induced mice; Second cage (5 mice)): 5; survival status of mice (mice alive) 36h (LPS-induced mice; Second cage (5 mice)): 5; survival status of mice (mice alive) 48h (LPS-induced mice; Second cage (5 mice)): 5; survival status of mice (mice alive) 72h (LPS-induced mice; Second cage (5 mice)): 4; Plasma ([4]; 1 h): 1830 ng/mL; Plasma ([4]; 6 h): 46 ng/mL; Kp at 1 h [4]: 0.04; Kp at 6 h [4]: 0.46
C#Cc1ccc(-c2nnc(N[C@@H]3CCCN(C)C3)c(=O)n2C)c(O)c1 [Compound 24, (R)-3-(4-ethynyl-2-hydroxyphenyl)-4-methyl-6-((1-methylpiperidin-3-yl)amino)-1,2,4-triazin-5(4H)-ketone]	Conclusion: compounds 3, 4, 5, 9, 16, 17, 24, 30, 40, 41, 42, 43, 54 and others have weak inhibitory effects on the hERG potassium ion channel, having weaker inhibitory effect than the reference compound Ref-1.	6.83%	12 nM										
CCn1c(-c2ccc3sccc3c2O)nnc(N[C@@H]2CCCN(C)C2)c1=O [Compound 17, (R)-4-ethyl-3-(4-hydroxybenzo[b]thiophen-5-yl)-6-[(1-methylpiperidin-3-yl)amino]-1,2,4-tria zin-5(4H)-ketone]		22.83%		Conclusion: compounds 3, 4, 5, 9, 16, 17, 24, 30, 40, 41, 42, 43, 54 and others have weak inhibitory effects on the hERG potassium ion channel, having weaker inhibitory effect than the reference compound Ref-1.	17800 ng·h/mL	1850 ng/mL	4.2 h	3.19 nM	47 ng/g	713 ng/mL	25 ng/g	590 ng/mL	Brain ([4]; 1 h): 745 ng/g; Plasma ([4]; 1 h): 5243 ng/mL; Brain ([4]; 6 h): 290 ng/g; Plasma ([4]; 6 h): 1872 ng/mL; Kp at 1 h [4]: 0.14; Kp at 6 h [4]: 0.16
CCn1c(-c2ccc3sccc3c2O)nnc(N[C@@H]2C[C@@H](F)CN(C)C2)c1=O [Compound 43, 4-ethyl-6-(((3R,5R)-5-fluoro-1-methylpiperidin-3-yl)amino)-3-(4-hydroxybenzo[b]thiophen-5-yl)-1,2,4-triazin-5(4H)-ketone]		14.23%		Conclusion: compounds 3, 4, 5, 9, 16, 17, 24, 30, 40, 41, 42, 43, 54 and others have weak inhibitory effects on the hERG potassium ion channel, having weaker inhibitory effect than the reference compound Ref-1.	15700 ng·h/mL	5070 ng/mL	2.25 h	5.66 nM	151 ng/g	6797 ng/mL	40 ng/g	1911 ng/mL	distribution concentrations in cerebrospinal fluid / brain penetration potential (conclusion in words) ([5]; mouse, in vivo): Conclusion: some compounds of the present invention have good brain penetration potential, and particularly, compounds 40, 43 and others have high distribution concentrations in cerebrospinal fluid.
Cn1c(-c2ccc3sccc3c2O)nnc(N[C@@H]2CCCN(C3CC3)C2)c1=O [Compound 16, (R)-6-((1-cyclopropylpiperidin-3-yl)amino)-3-(4-hydroxybenzo[b]thiophen-5-yl)-4-methyl-1,2,4-triazin-5(4H)-ketone]	Conclusion: compounds 3, 4, 5, 9, 16, 17, 24, 30, 40, 41, 42, 43, 54 and others have weak inhibitory effects on the hERG potassium ion channel, having weaker inhibitory effect than the reference compound Ref-1.	35.63%	1.62 nM										
CCN1C[C@H](F)C[C@@H](Nc2nnc(-c3ccc4sccc4c3O)n(CC)c2=O)C1 [Compound 42, 4-ethyl-6-(((3R,5R)-1-ethyl-5-fluoropiperidin-3-yl)amino)-3-(4-hydroxybenzo[b]thiophen-5-y 1)-1,2,4-triazin-5(4H)-ketone]	Conclusion: compounds 3, 4, 5, 9, 16, 17, 24, 30, 40, 41, 42, 43, 54 and others have weak inhibitory effects on the hERG potassium ion channel, having weaker inhibitory effect than the reference compound Ref-1.	14.98%	4.76 nM										concentration at 0.25 h ([5]; mouse, cerebrospinal fluid): 35 ng/g; concentration at 2 h ([5]; mouse, cerebrospinal fluid): 1 ng/g; concentration at 0.25 h ([5]; mouse, plasma): 965 ng/mL; concentration at 2 h ([5]; mouse, plasma): 46 ng/mL; AUC(0-t) ([2]; male, Balb/c, po): 2500 ng·h/mL; Cmax ([2]; male, Balb/c, po): 2700 ng/mL; half-life ([2]; male, Balb/c, po): 1.61 h
CCN1C[C@H](F)C[C@@H](Nc2nnc(-c3ccc4sccc4c3O)n(C)c2=O)C1 [Compound 41, 6-(((3R,5R)-1-ethyl-5-fluoropiperidin-3-yl)amino)-3-(4-hydroxybenzo[b]thiophen-5-yl)-4-me thyl-1,2,4-triazin-5(4H)-ketone]		13.31%		Conclusion: compounds 3, 4, 5, 9, 16, 17, 24, 30, 40, 41, 42, 43, 54 and others have weak inhibitory effects on the hERG potassium ion channel, having weaker inhibitory effect than the reference compound Ref-1.				2.02 nM	67 ng/g	668 ng/mL	1 ng/g	38 ng/mL	72h Survival rate (LPS-induced mice): 100%; survival status of mice (mice alive) 12h (LPS-induced mice; First cage (5 mice)): 5; survival status of mice (mice alive) 24h (LPS-induced mice; First cage (5 mice)): 5; survival status of mice (mice alive) 36h (LPS-induced mice; First cage (5 mice)): 5; survival status of mice (mice alive) 48h (LPS-induced mice; First cage (5 mice)): 5; survival status of mice (mice alive) 72h (LPS-induced mice; First cage (5 mice)): 5; survival status of mice (mice alive) 12h (LPS-induced mice; Second cage (5 mice)): 5; survival status of mice (mice alive) 24h (LPS-induced mice; Second cage (5 mice)): 5; survival status of mice (mice alive) 36h (LPS-induced mice; Second cage (5 mice)): 5; survival status of mice (mice alive) 48h (LPS-induced mice; Second cage (5 mice)): 5; survival status of mice (mice alive) 72h (LPS-induced mice; Second cage (5 mice)): 5
